The results in this text go back to ChEMBL document CHEMBL6109155, “Discovery of Phenylacylpiperidine as Novel sEH Inhibitors through Scaffold Hopping of Natural Stilbene” (J Med Chem, 2025).

A short description of data set [1]: AUC (0 to 24 hrs) in kidney of C57BL/6J mouse at 20 mg/kg, po measured for 24 hrs. The data set is classed as ADME, organism-based.
Data set [2] in a line: AUC (0 to 24 hrs) in brain of C57BL/6J mouse at 20 mg/kg, po measured for 24 hrs. The data set is classed as ADME, organism-based.
Data set [3] has as its system Mus musculus. The data set can be described thus: Analgesic effect in BALB/c mouse model of acetic acid-induced writhing assessed as reduction in number of writhing episodes at 20 mg/kg, po pretreated for 1 hr followed by acetic acid treatment and measured after 5 to 35 mins relative to control. The conditions noted are these: time 65-95 min. Details: scale not given: the % may be the effect or the level left. The data set is classed as functional. Background: An intraperitoneal irritant provokes the stretching counted in writhing tests.

Data set [4] in a line: Ratio of AUC (0 to 24 hrs) in brain to plasma in C57BL/6J mouse at 20 mg/kg, po measured for 24 hrs. The data set is classed as ADME, organism-based. The following applies: brain and plasma, read-out: Ratio AUC.
The nature of data set [5]: Ratio of Cmax in kidney to plasma in C57BL/6J mouse at 20 mg/kg, po measured for 24 hrs. The following applies: kidney and plasma. The data set is classed as ADME, organism-based.
Data set [6] is described as follows: Ratio of AUC (0 to 24 hrs) in liver to plasma in C57BL/6J mouse at 20 mg/kg, po measured for 24 hrs. The data set is classed as ADME, organism-based. The conditions noted are these: liver and plasma, read-out: Ratio AUC.
Data set [7] can be described thus: Ratio of Cmax in brain to plasma in C57BL/6J mouse at 20 mg/kg, po measured for 24 hrs. The data set is classed as ADME, organism-based. The following applies: brain and plasma.
Data set [8] concerns Mus musculus. Put plainly: Anti-inflammatory activity in BALB/c mouse model of carrageenan-induced paw edema assessed as inhibition of paw swelling at 20 mg/kg, po measured for 2 hrs relative to control. The data set is classed as functional.
Data set [9] concerns Mus musculus. Put plainly: Anti-inflammatory activity in BALB/c mouse model of carrageenan-induced paw edema assessed as inhibition of paw swelling at 20 mg/kg, po measured for 0.5 hrs relative to control. The data set is classed as functional. The following applies: Mus musculus, BALB/c. For orientation: Carrageenan injected into the paw causes an acute inflammation.
A short description of data set [10]: AUC (0 to 24 hrs) in plasma of C57BL/6J mouse at 20 mg/kg, po measured for 24 hrs. The data set is classed as ADME, organism-based.
Data set [11] can be described thus: Cmax in kidney of C57BL/6J mouse at 20 mg/kg, po measured for 24 hrs. The data set is classed as ADME, organism-based.
In data set [12] the test system is Mus musculus. Put plainly: Anti-inflammatory activity in BALB/c mouse model of carrageenan-induced paw edema assessed as inhibition of paw swelling at 20 mg/kg, po measured for 6 hrs relative to control. The data set is classed as functional.
Data set [13] addresses T1, Bifunctional epoxide hydrolase 2 (Mus musculus, UniProt P34914).
T1 sequence (P34914 whole entry): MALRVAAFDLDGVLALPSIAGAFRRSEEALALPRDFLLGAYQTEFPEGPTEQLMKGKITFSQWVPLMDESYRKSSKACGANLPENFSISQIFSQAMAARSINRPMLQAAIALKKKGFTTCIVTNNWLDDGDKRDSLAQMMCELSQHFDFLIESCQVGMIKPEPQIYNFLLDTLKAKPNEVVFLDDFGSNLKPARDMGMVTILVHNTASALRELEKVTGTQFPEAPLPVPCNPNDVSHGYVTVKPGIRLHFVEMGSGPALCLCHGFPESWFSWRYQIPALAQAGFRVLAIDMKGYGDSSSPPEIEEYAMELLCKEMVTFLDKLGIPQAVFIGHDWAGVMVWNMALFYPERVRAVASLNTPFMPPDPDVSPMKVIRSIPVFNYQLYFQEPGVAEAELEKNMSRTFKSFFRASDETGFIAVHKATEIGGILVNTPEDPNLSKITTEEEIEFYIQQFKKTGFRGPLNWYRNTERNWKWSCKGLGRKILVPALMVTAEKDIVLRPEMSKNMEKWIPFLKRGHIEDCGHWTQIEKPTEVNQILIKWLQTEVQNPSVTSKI
The data set can be described thus: biochemical.
Description: Inhibition of C57BL/6J mouse brain sEH using 14,15-EET as substrate preincubated for 15 mins followed by substrate addition by HPLC-MS analysis

Data set [14] can be described thus: AUC (0 to 24 hrs) in liver of C57BL/6J mouse at 20 mg/kg, po measured for 24 hrs. The data set is classed as ADME, organism-based.
The nature of data set [15]: Cmax in brain of C57BL/6J mouse at 20 mg/kg, po measured for 24 hrs. The data set is classed as ADME, organism-based.
A short description of data set [16]: Cmax in liver of C57BL/6J mouse at 20 mg/kg, po measured for 24 hrs. The data set is classed as ADME, organism-based.
Data set [17] is described as follows: Ratio of Cmax in liver to plasma in C57BL/6J mouse at 20 mg/kg, po measured for 24 hrs. The data set is classed as ADME, organism-based. The conditions noted are these: liver and plasma.
A short description of data set [18]: Cmax in plasma of C57BL/6J mouse at 20 mg/kg, po measured for 24 hrs. The data set is classed as ADME, organism-based.
A short description of data set [19]: Ratio of AUC (0 to 24 hrs) in kidney to plasma in C57BL/6J mouse at 20 mg/kg, po measured for 24 hrs. The data set is classed as ADME, organism-based. The conditions noted are these: kidney and plasma, read-out: Ratio AUC.
The test system of data set [20] is Mus musculus. Put plainly: Effect on liver sEH enzyme activity in BALB/c mouse model of carrageenan-induced paw edema at 1 to 10 mg/kg, po measured after 6 hrs. The data set is classed as functional, organism-based. The following applies: dose 1-10 mg/kg.
For data set [21], the system named is Mus musculus. The data set can be described thus: Anti-inflammatory activity in BALB/c mouse model of carrageenan-induced paw edema assessed as increase in ratio of 8,9-EET to DHET plasma levels at 10 mg/kg, po measured after 6 hrs. The data set is classed as functional, organism-based.
Data set [22] concerns Mus musculus. The data set can be described thus: Anti-inflammatory activity in BALB/c mouse model of carrageenan-induced paw edema assessed as inhibition of paw swelling at 10 mg/kg, po measured up to 6 hrs relative to control. The data set is classed as functional.
In data set [23] the test system is Mus musculus. The data set can be described thus: Anti-inflammatory activity in BALB/c mouse model of carrageenan-induced paw edema assessed as increase in ratio of 14,15-EET to DHET plasma levels at 10 mg/kg, po measured after 6 hrs. The data set is classed as functional, organism-based.
The subject of data set [24] is Mus musculus. Put plainly: Anti-inflammatory activity in BALB/c mouse model of carrageenan-induced paw edema assessed as decrease in plasma 8,9-DHET levels at 10 mg/kg, po measured after 6 hrs. The data set is classed as functional, organism-based.
Data set [25] relates to Mus musculus. The data set can be described thus: Anti-inflammatory activity in BALB/c mouse model of carrageenan-induced paw edema assessed as decrease in plasma 14,15-DHET levels at 10 mg/kg, po measured after 6 hrs. The data set is classed as functional, organism-based.
Data set [26] deals with Mus musculus. The data set can be described thus: Anti-inflammatory activity in BALB/c mouse model of carrageenan-induced paw edema assessed as decrease in plasma 11,12-DHET levels at 10 mg/kg, po measured after 6 hrs. The data set is classed as functional, organism-based.
In data set [27] the test system is Mus musculus. Put plainly: Effect on liver sEH protein content in BALB/c mouse model of carrageenan-induced paw edema at 1 to 10 mg/kg, po measured after 6 hrs. The data set is classed as functional, organism-based. The following applies: dose 1-10 mg/kg.
Data set [28] concerns RAW264.7. The data set can be described thus: Upregulation of IL-10 level in LPS-indeced mouse RAW264.7 cells at 10 uM preincubated for 1 hr followed by LPS addition measured after 24 hrs by ELISA. The data set is classed as functional, cell-based. A general note: An ELISA detects its analyte on a solid surface through an enzyme-linked reagent.
Data set [29] concerns RAW264.7. Put plainly: Effect on IL-10 level in LPS-indeced mouse RAW264.7 cells at 10 uM preincubated for 1 hr followed by LPS addition measured after 24 hrs by ELISA. The data set is classed as functional, cell-based.
For data set [30], the system named is RAW264.7. Put plainly: Anti-inflammatory activity in LPS-indeced mouse RAW264.7 cells assessed as reduction in TNF-alpha level at 10 uM preincubated for 1 hr followed by LPS addition measured after 24 hrs by ELISA. The data set is classed as functional, cell-based. The conditions noted are these: time 25.0 hrs.
For data set [31], the system named is Mus musculus. Put plainly: Anti-inflammatory activity in BALB/c mouse model of carrageenan-induced paw edema assessed as increase in ratio of 11,12-EET to DHET plasma levels at 10 mg/kg, po measured after 6 hrs. The data set is classed as functional, organism-based.
For data set [32], the system named is RAW264.7. The data set can be described thus: Anti-inflammatory activity in LPS-indeced mouse RAW264.7 cells assessed as reduction in IL-6 level at 10 uM preincubated for 1 hr followed by LPS addition measured after 24 hrs by ELISA. The data set is classed as functional, cell-based.
The subject of data set [33] is RAW264.7. Put plainly: Anti-inflammatory activity in LPS-indeced mouse RAW264.7 cells assessed as reduction in IL-1beta level at 10 uM preincubated for 1 hr followed by LPS addition measured after 24 hrs by ELISA. The data set is classed as functional, cell-based.
Data set [34] deals with RAW264.7. Put plainly: Effect on IL-6 level in LPS-indeced mouse RAW264.7 cells at 10 uM preincubated for 1 hr followed by LPS addition measured after 24 hrs by ELISA. The data set is classed as functional, cell-based.
The subject of data set [35] is Mus musculus. The data set can be described thus: Anti-inflammatory activity in BALB/c mouse model of carrageenan-induced paw edema assessed as inhibition of paw swelling at 20 mg/kg, po measured for 4 hrs relative to control. The data set is classed as functional.

Active and inactive are the calls of the source. No cut-off for these calls is given here.

With `CCC(=O)N1CCC(CNC(=O)NC2CCN(C(=O)Cc3cc(OC)cc(OC)c3)CC2)CC1`, the AUC(0-t) at 24 h in [1] worked out at 43400 ng·h/mL; in data set [2] it was 173 ng·h/mL; in data set [10] it was 323 ng·h/mL; in [14] it was 76700 ng·h/mL. The Activity in the data set with Mus musculus [3] is given as 60%. Further, the Kp at 24 h in data set [4] turned out to be 0.53; in data set [5], 52.3; in data set [6] it was 237; in data set [7], 0.59; in data set [17], 77.5; in data set [19] it was 135. Besides, the inhibition in vivo at 20 mg/kg was determined as 50.8% with Mus musculus [8], 38.6% in the data set with Mus musculus [9] and 37.6% in the data set with Mus musculus [12]. Moreover, the Cmax came to 4010 ng/g in [11], 44.9 ng/g in data set [15], 5940 ng/g in data set [16] and 76.7 ng/mL in data set [18]. Besides, the IC50 in [13] was determined as 10.8 nM.

As to `CC[C@H](C)C(=O)N1CCC(NC(=O)Nc2ccc(OC(F)(F)F)c(F)c2)CC1`, the result in the data set with Mus musculus [20], in the data set on Mus musculus [21], with Mus musculus [23], with Mus musculus [24], in the data set on Mus musculus [25] and with Mus musculus [26] was Active. Further, the result with Mus musculus [27], in the data set with RAW264.7 [28], in the data set with RAW264.7 [30], in the data set on Mus musculus [31], in the data set on RAW264.7 [32] and in the data set on RAW264.7 [33] was Active. Besides, the Imax in the data set with Mus musculus [22] is reported as 30.6%. For the same compound, the Activity result in the data set on RAW264.7 [29] and with RAW264.7 [34] was “No effect” each time.

Turning to `COc1cc(OC)c2c(c1)C1Cc3ccc(NC(=O)NCc4ccc(OC(F)(F)F)cc4)cc3CN1CC2` (configuration not stated), the inhibition in vivo at 20 mg/kg with Mus musculus [9] amounted to 24.7%; with Mus musculus [35], 38.5%. In [13], half-maximal inhibition (IC50) was put at 1.44 nM.

By AUC(0-t) is commonly meant exposure summed from dosing to a finite time, without extrapolation to infinity. The term inhibition in vivo denotes the share of the control response that was lost under treatment. One may read the Cmax as the peak of the concentration-time curve. By IC50 is commonly meant the concentration needed to halve the response being measured.
